Assays:
[1] = system: histamine-induced skin reaction in rat; test: Histamine-induced skin reaction test in rat (Test Example 3); assay type: in vivo; details: oral, histamine 10 μg/0.1 mL/site intradermal, pigment area, read-out: Skin reaction test in rat ID50
Procedure: […] One hour after the administration, a 1% Evans Blue physiological saline solution (Tokyo Chemical Industry Co., Ltd.) was administered into the caudal vein in a dose of 5 mL/kg, and immediately histamine 10 μg/0.1 mL/site (manufactured by Wako Pure Chemical Industries, Ltd.) was intradermally administered into the dorsum. Thirty minutes after the administration, the rat was anesthetized with diethyl ether and then euthanized by cervical dislocation. The skin was ablated, and the major axis and minor axis of a spot of the pigment exuded into the skin were measured to calculate the area of the pigment.

rat H1 receptor = biological target: T1, rat H1 receptor (Rattus norvegicus, UniProt P31390); test: Rat H1 receptor affinity test (Test Example 1); assay type: binding; details: rat cerebrum membrane preparation, [3H]-pyrilamine 2 nmol/L
T1 construct: An H1 receptor membrane preparation was prepared from rat cerebrum; from tissue; host or cells: rat cerebrum
Procedure: An H1 receptor membrane preparation was prepared from rat cerebrum. […] To the resulting each sample, 50 μL of 8 nmol/L [^3H]-pyrilamine (manufactured by PerkinElmer) (final concentration: 2 nmol/L) was added and mixed. After the mixture was incubated at a room temperature for 30 minutes, the reaction solution was collected on a glass filter by a cell harvester (manufactured by Molecular Devices), and then the filter was washed with the incubation buffer. The glass filter was cut off and transferred in a vial. To the vial was added 5 mL of a scintillator (manufactured by National Diagnostics), and the mixture was shaken for not less than one hour. Thereafter, the radioactive concentration was measured by a liquid scintillation counter.

human H1 receptor = biological target: T2, human H1 receptor (Homo sapiens, UniProt P35367); test: Human H1 receptor affinity test (Test Example 2); assay type: binding; details: CHO cell membrane preparation expressing human H1 receptor, [3H]-pyrilamine 2 nmol/L
T2 construct: purchased; host or cells: CHO cells
Procedure: Chinese hamster ovarian cells (CHO cells) having human H1 receptor forcibly express were purchased and used as an H1 receptor membrane preparation. […] To the resulting each sample, 50 μL of 8 nmol/L [^3H]-pyrilamine (final concentration: 2 nmol/L) was added and mixed. […] The glass filter was cut off and transferred in a vial. To the vial was added 5 mL of a scintillator (manufactured by National Diagnostics), and the mixture was shaken for not less than one hour. Thereafter, the radioactive concentration was measured by a liquid scintillation counter.

[2] = system: histamine-induced skin reaction in mouse; test: Skin reaction test in mouse (Test Example 4); assay type: in vivo; details: oral, histamine 3 μg/50 μL/site intradermal, pigment area, read-out: Skin reaction test in mouse ID50
Procedure: Each mouse was sheared the day before test and fasted overnight. A low, middle or high dose of each test compound suspended in a 0.5% (W/V) CMC-Na aqueous solution was orally administered to the mouse. One hour after the administration, a 1% Evans Blue physiological saline solution (Tokyo Chemical Industry Co., Ltd.) was administered into the caudal vein in a dose of 10 mL/kg, and immediately histamine 3 μg/50 μL/site was intradermally administered into the dorsum. Thirty minutes after the administration, the mouse was anesthetized with diethyl ether and then euthanized by cervical dislocation. The skin was ablated, and the major axis and minor axis of a spot of the pigment exuded into the skin were measured to calculate the area of the pigment.

[3] = system: mouse IgE-dependent ear edema model; test: Inhibitory effects on mouse IgE-dependent ear edema model (Test Example 5); assay type: in vivo; details: oral twice a day, dose one-third of ID50 (Dose column of Table D); for Inhibitory effects in each allergic reaction phase: Immediate phase: mouse ear swelling 1 hour after antigen; for Inhibitory effects in each allergic reaction phase: Late phase: mouse ear swelling 24 hours after antigen; for Inhibitory effects in each allergic reaction phase: Very late phase: mouse ear swelling 7 days after antigen;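 as to all read-outs here: doses given 1 h before and 6 h after antigen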
Procedure: (§1) To each mouse, 0.25 mL of an anti-DNP-IgE antibody (manufactured by SIGMA-ALDRICH) was intravenously administered for passive sensitization. On the day following the administration, an antigen (DNFB solution; manufactured by Wako Pure Chemical Industries, Ltd.) was applied on the right ear to induce dermatitis (ear swelling). One hour, 24 hours and 7 days after the application of the antigen, the thickness of the right ear was measured by a thickness measuring apparatus (dial thickness gauge). […] The thickness of the right ear before the sensitization was measured beforehand; the inhibition rates of the swelling in immediate phase, late phase, and very late phase were calculated.

[4] = system: mouse IgE-dependent ear edema model; test: Inhibitory effects on mouse IgE-dependent ear edema model (Test Example 8); assay type: in vivo; details: oral twice a day, dose a multiple of mouse ID50 (Dose column of Table E); for Inhibitory effects in each allergic reaction phase: Immediate phase: mouse ear swelling 1 hour after antigen; for Inhibitory effects in each allergic reaction phase: Late phase: mouse ear swelling 24 hours after antigen; for Inhibitory effects in each allergic reaction phase: Very late phase: mouse ear swelling 7 days after antigen;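 as to all read-outs here: 5 or 10 times the mouse skin-reaction ID50 per dose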
Procedure: as §1

T2 sequence (P35367 whole entry): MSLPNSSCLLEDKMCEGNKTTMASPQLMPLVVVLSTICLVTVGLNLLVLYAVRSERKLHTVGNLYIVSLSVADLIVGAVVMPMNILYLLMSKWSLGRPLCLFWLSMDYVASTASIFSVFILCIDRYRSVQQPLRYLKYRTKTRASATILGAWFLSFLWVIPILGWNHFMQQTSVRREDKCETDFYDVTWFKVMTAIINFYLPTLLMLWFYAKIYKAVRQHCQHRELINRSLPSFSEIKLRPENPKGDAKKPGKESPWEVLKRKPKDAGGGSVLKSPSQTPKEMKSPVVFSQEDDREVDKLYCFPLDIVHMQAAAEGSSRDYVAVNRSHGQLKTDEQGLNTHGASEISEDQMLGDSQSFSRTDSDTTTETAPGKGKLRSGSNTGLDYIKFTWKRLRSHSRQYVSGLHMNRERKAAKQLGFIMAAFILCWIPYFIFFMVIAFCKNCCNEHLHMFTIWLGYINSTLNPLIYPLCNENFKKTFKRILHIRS
T1 sequence (P31390 whole entry): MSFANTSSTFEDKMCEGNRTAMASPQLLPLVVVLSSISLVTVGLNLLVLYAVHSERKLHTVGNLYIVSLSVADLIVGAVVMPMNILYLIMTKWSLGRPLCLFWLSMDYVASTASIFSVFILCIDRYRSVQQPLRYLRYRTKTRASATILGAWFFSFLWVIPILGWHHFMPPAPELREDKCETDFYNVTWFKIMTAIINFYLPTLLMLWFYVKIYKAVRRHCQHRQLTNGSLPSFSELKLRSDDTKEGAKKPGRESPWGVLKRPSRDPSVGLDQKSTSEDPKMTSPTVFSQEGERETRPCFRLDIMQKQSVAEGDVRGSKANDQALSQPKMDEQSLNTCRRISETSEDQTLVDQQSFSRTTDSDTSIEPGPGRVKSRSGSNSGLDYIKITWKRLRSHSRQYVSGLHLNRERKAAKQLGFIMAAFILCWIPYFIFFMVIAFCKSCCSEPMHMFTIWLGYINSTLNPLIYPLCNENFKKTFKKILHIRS

SMILES | ED50 [1] [mg/kg] | IC50 (rat H1 receptor) [nM] | IC50 (human H1 receptor) [nM] | ED50 [2] [mg/kg] | Inhibitory effects in each allergic reaction phase: Immediate phase [3] | Inhibitory effects in each allergic reaction phase: Late phase [3] | Inhibitory effects in each allergic reaction phase: Very late phase [3] | Inhibitory effects in each allergic reaction phase: Immediate phase [4] | Inhibitory effects in each allergic reaction phase: Late phase [4] | Inhibitory effects in each allergic reaction phase: Very late phase [4]
O=C(O)CCCN1CCC(O[C@@H](c2ccc(Cl)cc2)c2ccccn2)CC1 [Bepotastine] | 0.5 | 170 | 20 | 0.02 |  |  |  |  |  | 
O=C(O)c1cccc(CN2CCC(OC(c3ccccc3)c3ccccc3)CC2)n1 [Example 2, 6-(4-benzhydryloxypiperidin-1-ylmethyl)pyridine-2-carboxylic acid] | 3.4 | 25 | 10 | 0.1 | ++ (++ Inhibitory rate 45 to 25%) | ++ (++ Inhibitory rate 45 to 25%) | + (+ Inhibitory rate 24 to 10%) | ++ (++ Inhibitory rate 45 to 20%) | ++ (++ Inhibitory rate 45 to 20%) | + (+ Inhibitory rate 19 to 10%)
O=C(O)c1cc(CN2CCC(OC(c3ccccc3)c3ccccc3)CC2)cs1 [Example 5] | 1.8 | 7 | 10 | 0.11 |  |  |  |  |  | 
O=C(O)c1cccc(CN2CCN(C(c3ccc(F)cc3)c3ccc(F)cc3)CC2)n1 [Example 11, 6-{4-[bis(4-fluorophenyl)methyl]piperazin-1-ylmethyl}pyridine-2-carboxylic acid] | 0.3 | 280 | 22 | 0.01 | ++ (++ Inhibitory rate 45 to 25%) | ++ (++ Inhibitory rate 45 to 25%) | ++ (++ Inhibitory rate 45 to 25%) | ++ (++ Inhibitory rate 45 to 20%) | ++ (++ Inhibitory rate 45 to 20%) | ++ (++ Inhibitory rate 45 to 20%)
O=C(O)c1cccc(CN2CCC(OC(c3ccccc3)c3ccc(Cl)cc3)CC2)n1 (stereo not drawn) [Example 22] | 0.5 | 5.7 | 13 | 0.01 |  |  |  |  |  | 
O=C(O)c1cccc(C(F)(F)N2CCC(OC(c3ccccc3)c3ccccc3)CC2)n1 [Example 37, 6-[(4-Benzhydryloxypiperidin-1-yl)difluoromethyl]pyridine-2-carboxylic acid] | 3.2 | 75 | 12 | 0.06 |  |  |  |  |  | 
O=C(O)c1ccnc(CN2CCC(OC(c3ccccc3)c3ccc(F)cc3)CC2)c1 (stereo not drawn) [Example 39] | 1.3 | 72 | 6.8 | 0.04 | ++ (++ Inhibitory rate 45 to 25%) | ++ (++ Inhibitory rate 45 to 25%) | ++ (++ Inhibitory rate 45 to 25%) | ++ (++ Inhibitory rate 45 to 20%) | ++ (++ Inhibitory rate 45 to 20%) | ++ (++ Inhibitory rate 45 to 20%)
O=C(O)c1cccc(CN2CCC(OC(c3ccccc3)c3ccc(F)c(F)c3)CC2)n1 (stereo not drawn) [Example 48] | 2.9 | 53 | 25 | 0.05 |  |  |  |  |  | 
O=C(O)c1cccc(CN2CCC(=C3c4ccc(Cl)cc4CCc4cccnc43)CC2)c1 [Example 67, 3-[4-(8-Chloro-5,6-dihydrobenzo[5,6]cyclohepta[1,2-b]pyridin-11-ylidene)piperidin-1-ylmethyl]benzoic acid] | 1.2 |  |  | 0.09 |  |  |  |  |  | 
O=C(O)c1cccc(CN2CCC(=C3c4ccccc4C=Cc4cccnc43)CC2)c1 [Example 70] | 1.6 | 28 | 14 | 0.12 |  |  |  |  |  | 
O=C(O)c1cccc(CN2CCC(=C3c4ccccc4C=Cc4cccnc43)CC2)n1 [Example 71] | 0.6 | 16 | 14 | 0.07 |  |  |  |  |  | 
CN(C)CC/C=C1/c2ccccc2COc2ccc(CC(=O)O)cc21 [Olopatadine] |  |  |  |  | ++ (++ Inhibitory rate 45 to 25%) | − (− Inhibitory rate less than 10%) | + (+ Inhibitory rate 24 to 10%) | ++ (++ Inhibitory rate 45 to 20%) | − (− Inhibitory rate less than 10%) | − (− Inhibitory rate less than 10%)

From patent publication US9365553B2, “Heterocyclic compound and H1 receptor antagonist” (Aska Pharmaceutical Co., Ltd., priority 2010, dated 2016)
